From paper PMC11106165, “Repurposing the KCa3.1 Blocker Senicapoc for Ischemic Stroke” (Translational Stroke Research, 2023)

Experiments:
[1] = tested on: male C57BL/6 J mice, tMCAO; test: tMCAO in mice, 14-point tactile and proprioceptive limb-placing score; type: in vivo, mouse; settings: for maximum neurological score reached: vehicle maximum 5; for average neurological score (14-point): started 12 h, day 8, vehicle average 3
Procedure: Reversible focal cerebral ischemia was induced by occlusion of the left middle cerebral artery (MCA) according to the classic filament method of Zea Longa as previously described for mice by our laboratory. All surgeries were performed in the MicroSurgery Core of the UC Davis School of Medicine by a microsurgeon with 20 years of surgical experience using a silicone rubber-coated nylon monofilament with a tip diameter of 0.21 ± 0.02 mm (No. 702112PK5Re, Doccol Corporation). Anesthesia was induced with 5% isoflurane and then maintained with 0.5 to 1.5% isoflurane in medical pure oxygen administered through a facemask. To assure consistent and continuous reduction of cerebral blood flow (CBF), a laser Doppler (Moor Instruments: MOORVMS-LDF) probe adapter was affixed to the surface of the skull over the brain area supplied by the MCA using dental cement. The probe remained in place throughout the MCAO surgery and CBF was measured continuously to confirm occlusion and later establishment of reperfusion. Animals were kept under anesthesia and body temperature was monitored throughout the whole procedure and maintained at > 36.5 °C using a feedback-controlled heating pad. Following 60 min of MCAO, the filament was withdrawn to allow reperfusion. Blood flow measurements were continued for another 15 min before removing the adapter and the laser Doppler probe. Animals received subcutaneous Buprenex at 0.02 mg/kg every 12 h to limit post-surgical pain for 24 h after surgery. The survival rate was 93%. […] In this study, out of the animals surviving to day 8 (45 out of 48), two animals were excluded because they lacked an obvious neurological deficit score at 12 h. Animals that met inclusion criteria were assigned to the 3 groups (low- and high-dose senicapoc or vehicle) based on a computer-generated randomization scheme. Six sham animals, where the filament was placed into the external carotid artery but not advanced, were used as controls for the qPCR experiments.
Starting at 12 h after tMCAO, and following the first neurological scoring, animals received either the vehicle, Miglyol 812 neutral oil (Medium chain triglycerides, Spectrum Chemicals), a low dose of senicapoc at 10 mg/kg, or a high dose of senicapoc at 40 mg/kg via intraperitoneal (IP) injection. Mice then received the same dosage of senicapoc (or vehicle) IP every 12 h for a total of 14 doses. In the experiment in Fig. 7, drug administration was started 3 h after reperfusion. Senicapoc was synthesized in our laboratory as described. Chemical identity and purity (> 98%) were tested by ^1H and ^13C-NMR and HPLC.
Since filament MCAO induces infarction in both the striatum and the cortex, we used the 14-point score tactile and proprioceptive limp-placing test to evaluate mice every 24 h. […] The scoring was performed as previously described in detail. The investigator performing the scoring was blinded to the treatment groups.

[2] = tested on: male C57BL/6 J mice, tMCAO; test: Immunohistochemistry (Iba-1, CD3, NeuN) of infarcted hemisphere on day 8 after MCAO; type: in vivo, mouse
Source text: After the MRI on day 8, animals were euthanized with an overdose of isoflurane, and brains were quickly removed and sectioned into four 2-mm-thick coronal slices starting from the frontal pole. […] Cell nuclei were visualized with 4′,6-diamidino-2-phenylindole (DAPI).
The images were then opened on the BZ-X Analyzer, the left (infarcted) hemisphere for each section extracted and analyzed with a macro within the “Hybrid Cell Count” feature of the BZ-X Analyzer program. Images were thresholded to exclusively the area of stained cells without considering artifacts, ventricles, or folds. Each macro-generated image was verified by careful visual inspection. Results for Iba1 and CD3 are reported as percentage of section area (µm^2) that was positively stained, divided by total section area (µm^2) in the infarcted left hemisphere. NeuN is reported as the inverse of the percentage of section area (µm^2) that was positively stained, divided by total section area (µm^2) in the infarcted left hemisphere in order to quantify the Neu negative area.

NC(=O)C(c1ccccc1)(c1ccc(F)cc1)c1ccc(F)cc1 [senicapoc]
maximum neurological score reached ([1]; 10 mg/kg low-dose group): 9 | average neurological score (14-point) ([1]; 10 mg/kg): 7 | maximum neurological score reached ([1]; 40 mg/kg high-dose group): 10 | sensorimotor coordination (neurological deficit score) ([1]; 40 mg/kg started 3 h after tMCAO): improved on both day 3 and day 8 | average neurological score (14-point) ([1]; 40 mg/kg): 9 | neuronal death (NeuN-negative area) [2]: decreases neuronal death | T cell infiltration (CD3 staining) ([2]; 40 mg/kg): significantly reduced | microglia/macrophage activation and infiltration (Iba1 staining) ([2]; 40 mg/kg): significantly reduced
